The record followed here is PubChem BioAssay (NCI).

Among the test systems are 786-0 renal; A498 renal; HCC-2998 colon; HCT-15 colon; HS 578T breast; M14 melanoma; NCI-H460 lung; SR leukemia; SF-539 CNS; CCRF-CEM leukemia.
Common to all, as to assay: NCI anticancer screen, dose series, 48 h

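1) Cells in 96-well plates. 2) Compound, 48 h, 5 concentrations. 3) Linear interpolation between surrounding doses. 4) Unreached endpoint = highest concentration. GI50 marks 50% less growth. The concentration for full growth arrest is given as TGI.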 A value given as a limit tells only on which side of the number the result lay.

Turning to `O=c1c2c3c(sc2[nH]c(=S)n1-c1ccccc1)CCCc1ccc([N+](=O)[O-])cc1-3`, the TGI in the test with 786-0 renal is above 100 µM; in the test on A498 renal, above 100 µM; with HCC-2998 colon, 77.3 µM; in the test on HCT-15 colon it was 72.7 µM; in the test on HS 578T breast it was above 100 µM; with M14 melanoma, above 100 µM. Besides, the TGI was above 100 µM with NCI-H460 lung and 85.8 µM with SR leukemia.

Take `CCCCCCCCCCCCCCCCCCOc1ccccc1CC(=O)NCC[N+]1(C)CCOCC1`: the GI50 with A498 renal is 13.4 µM; in the test with HCC-2998 colon it was 2.08 µM; with HCT-15 colon, 17.1 µM; in the test on HS 578T breast, 2.38 µM; in the test with M14 melanoma, 4.32 µM; in the test with NCI-H460 lung, 3.31 µM. Moreover, in the test on SF-539 CNS, the GI50 was 3.35 µM. For the same compound, the TGI in the test with A498 renal is 44 µM; with HCC-2998 colon, 7.09 µM; with HCT-15 colon it was 66.5 µM; in the test with HS 578T breast, 9.56 µM; in the test with M14 melanoma it was above 100 µM; with NCI-H460 lung, 17.4 µM. In addition, in the test on SF-539 CNS, the TGI turned out to be 12.8 µM.

With `OCc1cn(Cc2ccccc2)c2ccccc12`, the TGI in the test with 786-0 renal is above 53 µM; with CCRF-CEM leukemia, above 40.9 µM; in the test on HCT-15 colon, 31.4 µM; with HS 578T breast, 30.4 µM; in the test with M14 melanoma, above 54.3 µM; in the test on NCI-H460 lung, 35.8 µM. For the same compound, the TGI in the test on SF-539 CNS was above 69 µM; in the test on SR leukemia, above 100 µM.

In the case of `CCOC(=O)/C=C/c1nc(C#N)c(N)o1`, the TGI in the test with 786-0 renal, in the test on A498 renal, with CCRF-CEM leukemia, in the test with HCT-15 colon, with HS 578T breast and with M14 melanoma was above 100 µM throughout. This compound also registered a TGI in the test on SR leukemia above 100 µM.

`NC1=CC(=O)c2c(O)ccc(O)c2C1=O`: the TGI with 786-0 renal was 21.8 µM; in the test with A498 renal it was 47.5 µM; in the test on CCRF-CEM leukemia, 11.4 µM; with HCC-2998 colon, 24.2 µM; in the test on HCT-15 colon, above 56.1 µM; in the test with HS 578T breast it was 68.3 µM. Besides, the values for the TGI with M14 melanoma, with NCI-H460 lung and in the test on SF-539 CNS were 22.3 µM, 25.2 µM and 36 µM, respectively.

In the case of `Nc1ncnc2c1nnn2C1C=CC(CP(=O)(O)O)C1` (stereo not drawn), the TGI in the test on 786-0 renal, with HCC-2998 colon, in the test with HCT-15 colon, in the test on HS 578T breast, with M14 melanoma and in the test with NCI-H460 lung was above 100 µM in each case. This compound also yielded a TGI in the test on SF-539 CNS above 100 µM.

`CCc1c(O)cc(=O)oc1-c1ccc(OC)c(OC)c1`: the TGI with 786-0 renal, in the test with A498 renal, with CCRF-CEM leukemia, with HCC-2998 colon, in the test on HCT-15 colon and with HS 578T breast was above 100 µM each time. For the same compound, the TGI in the test on M14 melanoma, with NCI-H460 lung and in the test on SF-539 CNS was above 100 µM in each case.

As to `CC(=O)O[C@@H](c1nccn1Cc1ccccc1)[C@H]1OC(C)(C)O[C@@H]1[C@H]1COC(C)(C)O1`, the TGI with 786-0 renal, in the test with A498 renal, in the test with CCRF-CEM leukemia, in the test on HCC-2998 colon, with HCT-15 colon and in the test with HS 578T breast was above 100 µM in each case. The TGI in the test with NCI-H460 lung and in the test with SF-539 CNS was above 100 µM each time.

For the compound `COc1ccc(C)cc1N1C(=O)C2ON(Cc3ccc(CC(N)=O)cc3)C(c3c4ccccc4c(Cl)c4ccccc34)C2C1=O` (stereo not drawn), the TGI in the test with 786-0 renal was 50.2 µM; in the test with CCRF-CEM leukemia, above 100 µM; in the test with HCT-15 colon, 73.3 µM; in the test on HS 578T breast, above 100 µM; in the test on M14 melanoma, 38.8 µM; with NCI-H460 lung, 36.6 µM. Besides, in the test on SR leukemia, the TGI turned out to be 48.6 µM.

Regarding `Cc1ccccc1-c1nc2c(N)nc(N)nc2nc1N`, the TGI with 786-0 renal, in the test with CCRF-CEM leukemia, in the test with HCC-2998 colon, with HCT-15 colon, in the test with HS 578T breast and with M14 melanoma was above 100 µM throughout. For the same compound, the TGI in the test on NCI-H460 lung, in the test on SF-539 CNS and in the test on SR leukemia was above 100 µM throughout.

For the compound `O=c1oc2ccc3ccccc3c2cc1-c1cn2ccsc2n1`, the TGI with 786-0 renal is 32.7 µM; in the test with CCRF-CEM leukemia, 51.6 µM; with HCC-2998 colon, 67.9 µM; in the test with HCT-15 colon it was 35.9 µM; in the test on HS 578T breast, above 100 µM; in the test on M14 melanoma it was 60.5 µM. Besides, the TGI was above 100 µM with NCI-H460 lung, 51.2 µM with SF-539 CNS and 46.9 µM in the test on SR leukemia.

On to `CC1CC(N2CCOCC2)=Nc2ccccc2N1C` (stereo not drawn), for which the TGI in the test with 786-0 renal, in the test with A498 renal, in the test with CCRF-CEM leukemia, in the test with HCT-15 colon, in the test with HS 578T breast and with M14 melanoma was above 100 µM in each case. Further, the TGI in the test on NCI-H460 lung and with SF-539 CNS was above 100 µM each time.

Take `O=C(c1ccco1)N(C(=O)N1CCCCC1)c1ccccc1`: the TGI in the test with 786-0 renal, with A498 renal, in the test on CCRF-CEM leukemia, with HCT-15 colon, in the test on HS 578T breast and in the test with M14 melanoma was above 100 µM throughout. The same compound registered a TGI with SF-539 CNS above 100 µM.

Regarding `COCOc1ccc(C(=O)Oc2cccc3c2OC(C)(C)O3)c(OCOC)c1`, the TGI in the test on 786-0 renal was above 100 µM; with A498 renal, above 100 µM; in the test on CCRF-CEM leukemia, above 100 µM; with HCC-2998 colon it was above 100 µM; in the test on HCT-15 colon it was above 100 µM; in the test with HS 578T breast it was 86 µM. Besides, the TGI in the test with M14 melanoma, in the test with NCI-H460 lung and in the test with SF-539 CNS was above 100 µM throughout.

Take `Cc1nnc2n(c1=O)CCCN2C`: the TGI with 786-0 renal, in the test with CCRF-CEM leukemia, in the test with HCC-2998 colon, with HCT-15 colon, in the test on HS 578T breast and in the test on M14 melanoma was above 100 µM in each case. Besides, the TGI in the test on NCI-H460 lung, with SF-539 CNS and in the test with SR leukemia was above 100 µM throughout.

As for `COc1ccc(N=Nc2c(-c3c(OC)cc4occc4c3OC)[nH]c(=O)c(C#N)c2C)cc1`, the TGI in the test on 786-0 renal, with CCRF-CEM leukemia, in the test on HCC-2998 colon, in the test with HCT-15 colon, in the test with HS 578T breast and with M14 melanoma was above 100 µM each time. In addition, the TGI with NCI-H460 lung, in the test with SF-539 CNS and in the test on SR leukemia was above 100 µM each time.

On to `S=C(Cc1ccc2c(c1)Sc1ccccc1O2)N1CCOCC1`, for which the TGI in the test on 786-0 renal is above 100 µM; in the test with A498 renal it was above 100 µM; in the test with HCC-2998 colon, above 100 µM; in the test with HCT-15 colon, above 100 µM; with HS 578T breast it was 61.6 µM; with M14 melanoma it was above 100 µM. Also, the TGI is above 100 µM in the test with NCI-H460 lung, 61.1 µM with SF-539 CNS and above 100 µM with SR leukemia.

As to `O=C(/C=C/c1ccc(Cl)cc1)Oc1ccc(C=C2CCC/C(=C\c3ccc(OC(=O)/C=C/c4ccc(Cl)cc4)cc3)C2=O)cc1`, the TGI in the test on 786-0 renal, with A498 renal, in the test on HCC-2998 colon, in the test with HCT-15 colon, in the test on HS 578T breast and with M14 melanoma was above 100 µM in each case. The TGI in the test on NCI-H460 lung and with SF-539 CNS was above 100 µM in each case.

For the compound `O=C(/C=C/c1ccc(O)c(O)c1)OCCc1ccc2ccccc2c1`, the TGI amounted to 20.9 µM with 786-0 renal; 28.4 µM in the test on A498 renal; 23.8 µM with CCRF-CEM leukemia; 30.9 µM in the test on HCC-2998 colon; 10.2 µM in the test on HCT-15 colon; 24.1 µM in the test on HS 578T breast. In addition, the TGI with M14 melanoma was 16.9 µM; in the test with NCI-H460 lung, 23.7 µM; in the test on SF-539 CNS, 19.1 µM.

On to `O=C1C=CC2(O[C@H](c3ccccc3)[C@@H](c3ccccc3)O2)[C@H](Sc2ccccc2O)C1`, for which the TGI in the test on 786-0 renal was 0.356 µM; in the test with A498 renal it was 5.15 µM; with HCC-2998 colon it was 1.63 µM; in the test on HCT-15 colon, 0.507 µM; with HS 578T breast it was 7.88 µM; in the test with M14 melanoma, 0.609 µM. The results for the TGI with NCI-H460 lung and in the test with SF-539 CNS were 8.95 µM and 1.7 µM, respectively.

Consider `NS(=O)(=O)c1nnc(NC(=O)N(c2ccccc2)c2ccccc2)s1`, for which the TGI in the test with 786-0 renal is above 100 µM; in the test with CCRF-CEM leukemia it was above 100 µM; in the test on HCT-15 colon, above 100 µM; in the test on HS 578T breast, 73 µM; in the test with M14 melanoma, 35.3 µM; in the test with SF-539 CNS, 34.7 µM.

For `O=c1ccc2ccc(S)cc2o1`, the TGI with 786-0 renal, in the test on A498 renal, with HCC-2998 colon, with HCT-15 colon, with HS 578T breast and in the test on M14 melanoma was above 100 µM throughout. Further, the TGI in the test on NCI-H460 lung, in the test on SF-539 CNS and with SR leukemia was above 100 µM in each case.

On to `O=c1[nH]c(NCc2ccncc2)nc2nc[nH]c12`, for which the TGI in the test on 786-0 renal, in the test on CCRF-CEM leukemia, in the test with HCC-2998 colon, in the test on HCT-15 colon, in the test on HS 578T breast and in the test on M14 melanoma was above 100 µM each time. In the test with NCI-H460 lung, this compound registered a TGI above 100 µM.
